The test concerns SARS-CoV-2 Omicron variant (B.1.1.529-BA.1). It is filed as cell-based. Particulars: up to 20 µM; Omicron B.1.1.529-BA.1.

Entries after “also recorded” stand apart in the source; their conditions may differ.

Turning to `C[C@H](NC(=O)[C@H](Cc1ccc(O)cc1)NC(=O)OCc1ccccc1)C(=O)C=[N+]=[N-]`, the “inhibitory activity against SARS-CoV-2 Omicron in HNEC ALI cultures (in words)” value was “no inhibitory activity; also recorded: unable to block entry”.

Source of the values: publication PMC10055926.
